Source: patent US20240317755A1, “HETEROCYCLIC COMPOUND, AND INTERMEDIATE THEREOF, PREPARATION METHOD THEREFOR AND USE THEREOF” (WUHAN LL SCIENCE AND TECHNOLOGY DEVELOPMENT CO., LTD., priority 2021, published 2024)

Assay: PK study of male SD rats after single intragastric administration (5% solutol)
Assay type: in vivo
Conditions: rat, plasma, single PO compound 1-6 100 mg/kg; for AUC(0-inf) / AUC(0-t) / Cmax / MRT last / half-life: male, SD, po, 100 mg/kg
Procedure: Effect Example 2: PK Study of Male SD Rats after Single Intragastric Administration of Compound (Using 5% Solutol as a Solvent)
To explore the time-plasma concentration curves of the compound in the plasma of male rats after single intragastric administration of compound 1 (125 mg/kg) and compound 1-6 (100 mg/kg) of the present disclosure and to obtain PK parameters (Cmax, Tmax, AUClast, AUCinf, T1/2, MRT, etc.) of the rats after single administration of compound 1 and compound 1-6 of the present disclosure.
(§1) Rats: SD rats, SPF grade, 3 males, weight range of 180 to 200 g (source: Beijing Vital River Laboratory Animal Technology Co., Ltd., certificate number: 110011201109106028); • feeding conditions: ordinary animal house feeding, free access to food and water, 3 animals/cage rearing, 12/12 hours light/dark cycle adjustment (7:00 am/7:00 pm), temperature of 23±1° C.
Dispensing: After accurately weighing the compounds in the PO group, 5% solutol of the required volume was added thereto first, vortexed and mixed evenly for 2 min, sonicated for 30 min, stirred for 2 hours until no visible particles were visible to the naked eye, and the drug was administered while stirring, and the middle layer of the drug solution was taken for drug administration.
as §1, with “220” for “180”, “300” for “200”, “SPF (Beijing) Biotechnology” for “Beijing Vital River Laboratory Animal Technology”, “110324200103216838);” for “110011201109106028);”
Dispensing: After accurately weighing compound 1-6 in the PO group, 5% solutol of the required volume was added first, vortexed and mixed evenly for 2 min, sonicated for 30 min, stirred for 3 hours until no visible particles were visible to the naked eye; • the drug solution was prepared and used immediately, and a sample of the drug solution must be retained for analysis, and two samples of 100 μL each of the upper, middle, and lower suspensions were taken and sent for analysis and testing on the same day.
The rats were randomly divided into 3 groups according to body weight, and the specific grouping and administration are as follows:
• 1. The animals in the PO group were fasted overnight with free access to water before administration, and the food was returned 4 hours after administration; • 2. time points for blood sampling: the time points for blood sampling in the PO group were 0.167, 0.5, 1, 2, 3, 4, 6, 9, 12, and 24 hours.
• 1. The animals in the PG group were fasted overnight with free access to water before administration, and the food was returned 4 hours after administration; • 2. time points for blood sampling: the time points for blood sampling in the PG group were 0.167, 0.5, 1, 2, 3, 4, 6, 9, 12, and 24 hours.
After administration to rats, blood was collected from the orbital venous plexus according to the sampling time points. About 0.2 to 0.3 mL of blood was collected at each time point and transferred to an anticoagulant EP tube (containing 4 μL of EDTA-K2, 375 mg/mL). The tube was gently inverted three times and stored in an ice box (not exceeding 30 minutes). After centrifugation at 3500×g for 10 minutes at 4° C., the supernatant was transferred to a labeled EP tube. Hemolysis was observed and recorded, and the sample was sent to bioassay for testing. If the sample could not be analyzed the same day, the sample was stored at −80° C. until further testing (be careful not to perform multiple freezing/thawing processes). […]

[1] = analyte compound 1-6, mean value

## O=C(c1ccc(F)cc1C(F)(F)F)c1cnc2n1CCN(c1cn[nH]c(=O)c1Cl)C2 [Compound 1-6, 4-chloro-5-(3-(4-fluoro-2-(trifluoromethyl)benzoyl)-5,6-dihydroimidazo[1,2-a]pyrazin-7(8H)-yl)pyridazin-3(2H)-one]
Analyte compound 1-6, animal 4
  AUC(0-inf): 14500 ng·h/mL
  AUC(0-t): 13500 ng·h/mL
  Cmax: 1210 ng/mL
  MRT last: 8.03 h
  half-life: 5.95 h
  Tmax: 4 h
Analyte compound 1-6, animal 5
  AUC(0-inf): 11500 ng·h/mL
  AUC(0-t): 11200 ng·h/mL
  Cmax: 1290 ng/mL
  MRT last: 6.38 h
  half-life: 4.09 h
Analyte compound 1-6, animal 6
  AUC(0-inf): 27500 ng·h/mL
  AUC(0-t): 18200 ng·h/mL
  Cmax: 1150 ng/mL
  MRT last: 10 h
  half-life: 14.5 h
[1]
  AUC(0-inf): 17800 ng·h/mL
  AUC(0-t): 14300 ng·h/mL
  Cmax: 1220 ng/mL
  MRT last: 8.15 h
  half-life: 5.02 h
